Experiments:
Vaccinia = format: cell-based
Cowpox = format: cell-based

With `Nc1ccn(C[C@@H](CO)OCP(=O)(O)O)c(=O)n1` [CDV] as the molecule, how does the PR CDV EC50 (Vaccinia) read?
The PR CDV EC50 was 4.9 µg/mL.

What about the PR CDV EC50 (Cowpox) of the same molecule?
The PR CDV EC50 was 10.3 µg/mL.

From patent US20050276815A1, “Antiviral activity from medicinal mushrooms” (priority 2004, published 2005)
